One compound from patent US20210121383A1, “COMPOSITION FOR ANTI-AGING” (MORINAGA MILK INDUSTRY CO., LTD., priority 2018, published 2021) can be followed below.

For the experiment, the system named is HepG2 cells derived from liver cancer. In words: Test 2: quantitative evaluation of autophagy activity (CYTO-ID/Hoechst 33342 fluorescence, microplate reader). In kind it is cell-based. Particulars: 100 μM compound 1 or compound 2, 24 hours (positive control 500 nM rapamycin, 16 hours), then 10 μM chloroquine 6 hours; 3 wells per group. As to the method: The active action of autophagy of the compound 1 or the compound 2 observed in Test 1 was quantitatively detected.
HepG2 cells derived from liver cancer in 2.5×10^4 cells were plated in a 96-well plate (manufactured by Falcon), and the culture was performed for 24 hours in DMEM containing 10% FBS under the conditions of 37° C. and a CO2 concentration of 5%. After that, the cells were cultured for 24 hours by using a medium for testing prepared in (1-1) of (1) in Test 1. Further, the culture was performed in a similar manner as in Test 1 also in the negative control and the positive control. […]
Into each well, 100 μL of an assay buffer attached to a kit (manufactured by Enzo Life Sciences, Inc.) was added, and the fluorescence intensity was measured by using a fluorescence microplate reader, SH-9000 (manufactured by CORONA ELECTRIC Co., Ltd.). The fluorescence derived from the fluorescent probe for autophagy detection was measured under the conditions of an excitation filter of 480 nm and a fluorescence filter of 530 nm. Further, the fluorescence derived from each staining reagent was measured under the conditions of an excitation filter of 340 nm and a fluorescence filter of 480 nm.
Results of the fluorescence intensity of the cells exposed to a compound 1 or a compound 2, which was measured by a fluorescence microplate reader, are shown in Table 1. […]

With `CO[C@H]1C[C@@H]2CC[C@@H](C)[C@@](O)(O2)C(=O)C(=O)N2CCCC[C@H]2C(=O)O[C@H]([C@H](C)C[C@@H]2CC[C@@H](O)[C@H](OC)C2)CC(=O)[C@H](C)/C=C(\C)[C@@H](O)[C@@H](OC)C(=O)[C@H](C)C[C@H](C)/C=C/C=C/C=C/1C` [Positive control, rapamycin], the “Autophagy induction (CYTO-ID fluorescence intensity/Hoechst 33342 fluorescence intensity)” value is reported as 93.
